The values that follow come from ChEMBL document CHEMBL1914365, “Aminoacyl-tRNA synthetase inhibitors as potential antibiotics” (Eur J Med Chem, 2011).

Values after ≈ are worked out from the molar mass of the structure shown.

Test [1] concerns Staphylococcus epidermidis. The test can be described thus: Antibacterial activity against Staphylococcus epidermidis. Type of test: functional.
The subject of the next test is Streptococcus pyogenes. The test can be described thus: Antibacterial activity against Streptococcus pyogenes. It is filed as functional.
A short description of test [2]: Inhibition of Staphylococcus aureus Methionyl-tRNA synthetase.
In test [3] the test system is Staphylococcus aureus. The experiment in a line: Antibacterial activity against mupirocin or oxacillin-resistant Staphylococcus aureus. It is filed as functional.
The nature of test [4]: Inhibition of Escherichia coli Methionyl-tRNA synthetase.
In the next test the test system is Escherichia coli. The test can be described thus: Antibacterial activity against Escherichia coli. It is filed as functional.
For test [5], the system named is Staphylococcus aureus. The test can be described thus: Antibacterial activity against methicillin-resistant Staphylococcus aureus. It is filed as functional.
A further test has as its target Isoleucine--tRNA ligase (Escherichia coli K-12, UniProt P00956). The experiment in a line: Competitive inhibition of Escherichia coli Isoleucyl-tRNA synthetase.
The subject of the next test is Staphylococcus. The experiment in a line: Antibacterial activity against Staphylococcus aureus. Type of test: functional.
The subject of another test is Trypanosoma brucei. The test can be described thus: Antitrypanosomal activity against Trypanosoma brucei assessed as growth inhibition. Type of test: functional, organism-based.
Test [6] in a line: Inhibition of Trypanosoma brucei Leucyl-tRNA synthetase.

Isoleucine--tRNA ligase, sequence (P00956 whole entry): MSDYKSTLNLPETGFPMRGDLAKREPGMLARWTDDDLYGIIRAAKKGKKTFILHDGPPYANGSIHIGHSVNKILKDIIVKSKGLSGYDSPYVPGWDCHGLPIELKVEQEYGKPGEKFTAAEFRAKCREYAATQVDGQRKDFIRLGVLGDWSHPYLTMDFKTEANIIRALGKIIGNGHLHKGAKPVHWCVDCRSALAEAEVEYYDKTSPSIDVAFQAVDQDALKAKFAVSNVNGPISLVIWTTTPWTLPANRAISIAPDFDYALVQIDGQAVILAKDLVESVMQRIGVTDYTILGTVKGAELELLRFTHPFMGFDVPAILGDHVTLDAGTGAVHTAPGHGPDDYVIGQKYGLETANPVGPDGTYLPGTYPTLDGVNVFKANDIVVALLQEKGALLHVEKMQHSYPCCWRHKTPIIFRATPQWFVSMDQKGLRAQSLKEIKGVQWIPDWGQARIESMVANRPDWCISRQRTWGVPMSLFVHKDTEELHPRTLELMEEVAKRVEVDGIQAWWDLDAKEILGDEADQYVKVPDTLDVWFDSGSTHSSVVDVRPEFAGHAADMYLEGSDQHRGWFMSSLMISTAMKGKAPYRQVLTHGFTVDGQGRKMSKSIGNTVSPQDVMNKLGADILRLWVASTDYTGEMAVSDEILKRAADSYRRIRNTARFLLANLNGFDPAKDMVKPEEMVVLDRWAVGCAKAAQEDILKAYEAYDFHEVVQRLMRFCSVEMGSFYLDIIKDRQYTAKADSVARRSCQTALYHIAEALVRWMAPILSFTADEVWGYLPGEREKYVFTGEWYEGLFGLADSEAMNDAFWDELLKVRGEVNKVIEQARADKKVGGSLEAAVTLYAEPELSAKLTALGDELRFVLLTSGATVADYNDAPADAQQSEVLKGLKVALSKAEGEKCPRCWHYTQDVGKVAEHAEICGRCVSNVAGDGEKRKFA

As to `CC(C)C[C@H](NC(=O)[C@H](CC(C)C)N1C[C@@H](CNS(=O)(=O)c2ccccc2)NC1=O)C(=O)O`, the MIC50 in test [1] stood at 100 µM (≈ 48.3 µg/mL).

In the test with Streptococcus pyogenes, `C=C(F)c1sc(CNCCCNc2cc(=O)c3ccccc3[nH]2)c(C)c1Br` [BEDEROCIN] came in with an MIC of 0.03 µg/mL (≈ 0.0666 µM). Also, the Ki turned out to be 0.01 nM in test [2] and 300 nM in [4]. In the test with Staphylococcus aureus [3], this compound gave an MIC90 of 0.5 µg/mL (≈ 1.11 µM).

As for `C/C(=C\C(=O)OCCCCCCCCC(=O)O)C[C@@H]1OC[C@H](C[C@@H]2O[C@H]2[C@@H](C)[C@H](C)O)[C@@H](O)[C@H]1O` [MUPIROCIN], the minimal inhibitory concentration (MIC) amounted to 128 µg/mL (≈ 256 µM) against Escherichia coli and 0.25 µg/mL (≈ 0.499 µM) with Staphylococcus aureus [5]. In addition, the Ki on Isoleucine--tRNA ligase amounted to 2.5 nM.

Consider `O=C1OCC(NNc2ccc([N+](=O)[O-])cc2)=C1c1ccc(Br)cc1`, for which the MIC50 in the test on Staphylococcus came to 0.42 µg/mL (≈ 1.08 µM).

On to `CC(=O)C(C)(C)Oc1ccc2c(c1)B(O)OC2`, for which the EC50 in the test with Trypanosoma brucei is 370 nM.

`CC(C)C[C@H](NC(=O)[C@H](CC(C)C)N1C[C@@H](CNC(=O)Nc2ncccn2)NC1=O)C(=O)O` displayed an MIC50 in [1] of 25 µM (≈ 11.6 µg/mL). That is a double-digit micromolar value.

Compound `CC(C)C[C@H](NC(=O)[C@H](CC(C)C)N1C[C@@H](CNC(=O)Nc2ccccc2)NC1=O)C(=O)O` came in with an MIC50 in test [1] of 6.25 µM (≈ 2.88 µg/mL).

As for `CCOC(=O)COc1ccc2c(c1)B(O)OC2`, in [6], the IC50 came out at 1600 nM.

In general, MIC50 refers to an inhibitory concentration at the 50% level, which refers to growth in some studies and to a panel of isolates in others. Read a high MIC50 as lower susceptibility. Broadly, the MIC is the smallest concentration in the dilution series that meets the test's criterion for growth inhibition. The low end stands for greater potency, the high end for weaker potency. What is called Ki is a dissociation constant, usually derived from enzyme kinetics or from competition with a known ligand. Higher therefore signals weaker binding. By MIC90 is commonly meant an inhibitory concentration at the 90% level, which refers to growth in some studies and to a panel of isolates in others. Low values mean higher susceptibility, high ones lower susceptibility. A word on the EC50: it is the concentration needed to bring the measured effect to its halfway point. By IC50 is commonly meant the midpoint of a concentration-inhibition curve.
